Measurements published in patent US20070238649A1, “Agents for Regulating Adiponectin Receptor Expression” (priority 2004, published 2007).

Key:
AdipoR1 mRNA = AdipoR1 mRNA in skeletal muscle of STZ-treated mice (real-time PCR); format: in vivo; settings: FIG. 2C
Method: (§1) STZ Treatments Diabetes was induced by a double intraperitoneal injection of 0.2-0.3 ml of 50 mM sodium citrate solution (pH 4.5) containing STZ (200 mg/kg body weight). Control (non-STZ) mice were injected with 50 mM sodium citrate solution (pH 4.5). Three days after injection, plasma glucose levels were checked and diabetes was confirmed (glucose level >250 mg/dl). A combination of human regular insulin (1 units/kg; Eli Lilly, Indianapolis, Ind.), each given in 0.2 ml of saline was administered to the STZ+ insulin group. The mice in the STZ+ vehicle and non-STZ groups received 0.2 ml of saline injected both intraperitoneally. After injection of INS or saline, the animals were fasted for 6 h and then hindlim's skeletal muscles were removed.
(§2) Quantitative analysis of AdipoR1 and R2 transcripts by Northern blot and Real-time PCR Total RNA was prepared from cells or tissues with TRIzol (GIBCO/BRL) according to the manufacturer's instructions. For quantification of AdipoRs mRNAs, we employed the real-time PCR method (14). The primer sets and the probes for mAdipoR1,2 were as follows; the forward primer for mAdipoR1 was […], the reverse primer, […] and the probe, […]; the forward primer for mAdipoR2 was […], the reverse primer, […] and the probe, […]. The relative amount of each AdipoR transcript was normalized to the amount of actin transcript in the same cDNA (14).

[1] = Plasma insulin and plasma glucose in STZ-treated mice without or with insulin; format: in vivo
Source text: Animals Fifteen-week-old ob/ob mice and their wild-type C57BL/6 mice were obtained from CharlesRiver Breeding Laboratories (Wilmington, Mass.). Male mice were housed in colony cages, maintained on a 12-h light/12-h dark cycle. Our high-fat diet contains oil 1152 g (from Benibana, Japan; safflower oil [high-oleic type] contained 46% oleic acid (18:1n-9) and 45% linoleic acid (18:2n-6) from total fatty acids), casein 1191.6 g (Oriental Yeast, Tokyo, Japan, No.19), sucrose 633.6 g (Oriental Yeast, No. 13), vitamin mix 50.4 g (Oriental Yeast, No. 20 (AIN76), mineral mix 352.8 g (Oriental Yeast, No.25 (AIN76), cellulose powder 201.6 g (Oriental Yeast, No.19), DL-methionine 18 g (Wako Pure Chemicals, Osaka, Japan), water 360 ml; total 3600 g (20). Plasma insulin was measured by an insulin immunoassay (Shibayagi, Gunma, Japan). The animal care and procedures were approved by the Animal Care Committee of the University of Tokyo.
as §1

AdipoR2 mRNA = AdipoR2 mRNA in skeletal muscle of STZ-treated mice (real-time PCR); format: in vivo; settings: FIG. 2D
Method: as §1, §2

[2] = test system: membrane fractions of skeletal muscle; assay: [125I]adiponectin binding assay on membrane fractions of skeletal muscle; settings: wild-type vs ob/ob mice; FIGS. 5A, 5B
Method: Binding Assay Synthetic adiponectin was ^125I-labeled at Tyr by IODO-beads (Pierce) in the presence of Na^125I (2,000 Ci/mmol, Amersham Pharmacia Biotech) according to the manufacturer's protocol. Membrane fractions of muscles were incubated at 4° C. for 1 hr with binding buffer (ice-cold phosphate-buffered saline/0.1% bovine serum albumin) containing designated concentrations of [^125I]adiponectin (5,000 cpm/ng protein) plus unlabeled competitors. […] The cells were then washed three times with ice-cold phosphate-buffered saline, lysed in 0.1 N NaOH/0.1% SDS, and the cell-bound radioactivity was determined using a γ-counter (14). Nonspecific binding was determined using a 200-fold excess of unlabeled adiponectin. Specific binding was calculated by subtracting nonspecific binding from the total binding. The values presented in the “Results” represent an average of triplicate determinations of 3-10 experiments.

AMPK = assay: Adiponectin tolerance test: AMPK phosphorylation in skeletal muscle (Western blot); format: in vivo, mice; settings: 50 μg/10 g body weight, 5 min, FIGS. 5C, 5D
Method: Generation of recombinant adiponectin, adiponectin tolerance test and Western blot analysis Bacterially expressed murine full-length adiponectin (Ad) was generated as previously described (10, 14). […] Skeletal muscles were isolated 5 min after adiponectin injection. Phosphorylation and amount of AMPK in keletal muscles were determined (10, 14).

[3] = skeletal muscle of STZ-treated mice
[4] = skeletal muscle, STZ-treated mice given insulin

## CN(N=O)C(=O)N[C@H]1C(O)O[C@H](CO)[C@@H](O)[C@@H]1O (mixture of isomers) [STZ, streptozotocin]
AdipoR1 mRNA; [3]
  increase in AdipoR1 mRNA: 103%
[1]; STZ 200 mg/kg intraperitoneal, mice fasted 6 h, FIG. 2A
  plasma insulin: abolished
[1]; STZ-treated vs control mice, fasted 6 h, FIG. 2B lanes 1, 2
  plasma glucose: significant marked increase
AdipoR2 mRNA; [3]
  increase in AdipoR2 mRNA: 38%

## insulin: human regular insulin (Eli Lilly) in vivo; insulin added to hepatocytes and C2C12 myocytes in vitro
AdipoR1 mRNA; [4]
  AdipoR1 mRNA after insulin treatment: restored nearly completely
[1]; STZ plus insulin (1 units/kg) compared with STZ alone, FIG. 2B lanes 2, 3
  plasma glucose levels: reduced
AdipoR2 mRNA; [4]
  AdipoR2 mRNA after insulin treatment: restored nearly completely

B1: adiponectin: bacterially expressed murine full-length adiponectin; 125I-labeled adiponectin (globular or full-length) in the binding assay (protein)
chain: EDDVTTTEELAPALVPPPKGTCAGWMAGIPGHPGHNGTPGRDGRDGTPGEKGEKGDAGLLGPKGETGDVGMTGAEGPRGFPGTPGRKGEPGEAAYVYRSAFSVGLETRVTVPNVPIRFTKIFYNQQNHYDGSTGKFYCNIPGLYYFSYHITVYMKDVKVSLFKKDKAVLFTYDQYQEKNVDQASGSVLLHLEVGDQVWLQVYGDGDHNGLYADNVNDSTFTGFLLYHDTN
[2]
  adiponectin binding to the membrane fractions of skeletal muscle: higher binding to the membrane fractions of skeletal muscle of wild-type mice than ob/ob mice
AMPK; ob/ob mice (implied)
  AMPK activation in skeletal muscle: unable to activate AMPK
AMPK; wild-type mice
  AMPK activation in skeletal muscle: able to activate AMPK
